Assay results taken from ChEMBL document CHEMBL1201862, “PubChem BioAssay data set” (2004).
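Tested at 5 concentrations; 48 h exposure; 96-well plates; endpoints linearly interpolated, else capped at highest concentration. GI50 = concentration required for 50% inhibition of growth.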 Calls of active or inactive are those of the source. Rule as the data show it: active = GI50 up to about 1.1 µM and inactive = higher.

Legend:
Assay in all cases: growth of human tumour cells (NCI), 48 h
DLD-1 = tested on: DLD-1
DMS-273 = tested on: DMS-273
HOP-18 = tested on: HOP-18
M19-MEL = tested on: M19-MEL
XF498 = tested on: XF498
LXFL 529 = tested on: LXFL 529
RXF 631 = tested on: RXF 631

Compound	GI50 (DLD-1)	GI50 (DMS-273)	GI50 (HOP-18)	GI50 (M19-MEL)	GI50 (XF498)	GI50 (LXFL 529)	GI50 (RXF 631)
CCOC(=O)NC(=O)c1cn(CCN(CCO)C(=O)NCCCCCCNC(=O)N(CCO)CCn2cc(C(=O)NC(=O)OCC)c(=O)[nH]c2=O)c(=O)[nH]c1=O	> 100 µM (inactive)	> 100 µM (inactive)	> 100 µM (inactive)	> 100 µM (inactive)	> 100 µM (inactive)	–	–
C/C(CC(=O)Nc1cccc([N+](=O)[O-])c1)=N\NC(=O)CC#N	> 100 µM (inactive)	> 100 µM (inactive)	–	–	> 100 µM (inactive)	> 100 µM (inactive)	> 100 µM (inactive)
O=C(Cc1nc2ccc(C(=O)c3ccccc3)cc2nc1O)C(=O)Nc1ccc(C(F)(F)F)cc1[N+](=O)[O-]	> 100 µM (inactive)	99.1 µM (inactive)	65.2 µM (inactive)	58.1 µM (inactive)	27.5 µM (inactive)	35.8 µM (inactive)	96.6 µM (inactive)
COC1(OC)CC2C(=O)N(Cc3ccccc3)C1C(S(=O)(=O)c1ccccc1)C2C(C)S(=O)(=O)c1ccccc1 (stereo not given)	> 100 µM (inactive)	> 100 µM (inactive)	> 100 µM (inactive)	> 100 µM (inactive)	> 100 µM (inactive)	> 100 µM (inactive)	–
CC(C)NC(=O)OCc1c2c(n(C)c1COC(=O)NC(C)C)-c1ccccc1CC2	11.9 µM (inactive)	13.9 µM (inactive)	2.28 µM (inactive)	9.89 µM (inactive)	13.1 µM (inactive)	–	–
COc1ccc(C(=O)Cc2ccc(Br)cc2)cc1OC	> 100 µM (inactive)	> 100 µM (inactive)	> 100 µM (inactive)	> 100 µM (inactive)	31.7 µM (inactive)	> 100 µM (inactive)	57.4 µM (inactive)
COc1ccc(-c2nc(Sc3c([N+](=O)[O-])ncn3C)n[nH]2)cc1	2.49 µM (inactive)	2.18 µM (inactive)	0.296 µM (active)	4.9 µM (inactive)	2.98 µM (inactive)	3.12 µM (inactive)	3.3 µM (inactive)
CN(c1ccccc1)c1nc(=[N+]2CCCC2)ss1.[O-][Cl+3]([O-])([O-])[O-]	–	6.56 µM (inactive)	> 100 µM (inactive)	–	–	> 100 µM (inactive)	20.6 µM (inactive)
Cc1ccccc1NC(=O)C1C(=O)N(c2ccccc2C)C(=O)/C1=N\NC(N)=S (stereo not given)	> 100 µM (inactive)	> 100 µM (inactive)	–	–	> 100 µM (inactive)	> 100 µM (inactive)	> 100 µM (inactive)
C/C(=N/Nc1ccc([N+](=O)[O-])cc1[N+](=O)[O-])C(CC(C(=O)NCc1ccccc1)/C(C)=N\Nc1ccc([N+](=O)[O-])cc1[N+](=O)[O-])C(=O)NCc1ccccc1 (stereo not given)	12.1 µM (inactive)	8.02 µM (inactive)	2.69 µM (inactive)	11.5 µM (inactive)	–	10.9 µM (inactive)	4.29 µM (inactive)
Clc1ccc(Cl)c2[s+]snc12	44.6 µM (inactive)	27 µM (inactive)	> 100 µM (inactive)	54.7 µM (inactive)	> 100 µM (inactive)	34.2 µM (inactive)	> 94.6 µM (inactive)
O=C(Cn1ccnc1[N+](=O)[O-])c1ccc(F)cc1	–	> 100 µM (inactive)	> 100 µM (inactive)	> 100 µM (inactive)	> 100 µM (inactive)	> 100 µM (inactive)	–
CC(=O)c1c2c(cc3c1CC1(C3)Cc3cc4c(c(C(=O)O)c3C1)CCC4)CCC2 (stereo not given)	37.1 µM (inactive)	35.6 µM (inactive)	79.8 µM (inactive)	37 µM (inactive)	57.1 µM (inactive)	40.7 µM (inactive)	–
COC(=O)C1(c2ccc(OC)cc2)NC(c2ccccc2)C2C(=O)N(c3ccc(OC)cc3)C(=O)C21 (stereo not given)	> 100 µM (inactive)	> 100 µM (inactive)	< 0.01 µM (active)	–	> 100 µM (inactive)	> 100 µM (inactive)	> 100 µM (inactive)
CN(C)[C@@H]1C(O)=C(C(=O)NCN2CCN(C(=N)NC(=N)N)CC2)C(=O)[C@@]2(O)C(O)=C3C(=O)c4c(O)cccc4[C@@](C)(O)[C@H]3C[C@@H]12	0.0466 µM (active)	0.252 µM (active)	–	0.31 µM (active)	0.091 µM (active)	0.0857 µM (active)	0.166 µM (active)
N#CC1=C(c2ccccc2)NNC(c2ccc(Cl)cc2)CC1=O (stereo not given)	32.4 µM (inactive)	–	> 100 µM (inactive)	–	26.2 µM (inactive)	28.7 µM (inactive)	> 10 µM (inactive)
CN(C)C(=N)NC(=S)N(C)C	> 100 µM (inactive)	> 100 µM (inactive)	> 100 µM (inactive)	> 100 µM (inactive)	> 100 µM (inactive)	> 100 µM (inactive)	> 100 µM (inactive)
CCOC(=O)[C@H]1Nc2ccc(C)cc2C2c3ccccc3CC21 (stereo not given in full)	> 100 µM (inactive)	> 100 µM (inactive)	> 100 µM (inactive)	> 100 µM (inactive)	–	> 100 µM (inactive)	–
N#COc1ccc(Oc2ccc(OC#N)cc2)cc1	63 µM (inactive)	–	> 100 µM (inactive)	> 100 µM (inactive)	> 100 µM (inactive)	> 100 µM (inactive)	17.1 µM (inactive)
Nc1cc[nH]c(=O)n1	> 100 µM (inactive)	> 100 µM (inactive)	> 100 µM (inactive)	> 100 µM (inactive)	> 100 µM (inactive)	> 100 µM (inactive)	> 100 µM (inactive)
CC(=O)OC1CC[C@@]2(C)C(CC(OC3OC(CO)C(O)C(O)C3O)[C@]3(C)C2CCC24CC23CC[C@H]4C(C)CC(O)[C@@H](O)C(C)(C)O)C1(C)C (stereo not given in full)	15.5 µM (inactive)	18.2 µM (inactive)	14 µM (inactive)	8.07 µM (inactive)	–	8.99 µM (inactive)	29 µM (inactive)
O=S1(=O)C[C@@H](O)[C@H](O)CS1	> 100 µM (inactive)	> 100 µM (inactive)	> 100 µM (inactive)	> 100 µM (inactive)	> 100 µM (inactive)	> 100 µM (inactive)	–
c1ccc2c(c1)[nH]c1c2ncc2[nH]c3ccccc3c21	3.44 µM (inactive)	2.45 µM (inactive)	2.88 µM (inactive)	5.35 µM (inactive)	1.78 µM (inactive)	3.64 µM (inactive)	2.16 µM (inactive)
Cc1c2cc[n+](C)cc2c(C)c2c1[nH]c1ccccc12	1.68 µM (inactive)	1.5 µM (inactive)	2.82 µM (inactive)	0.984 µM (active)	0.548 µM (active)	–	–
O=C1N[C@@H]2C(=C[C@H](O)[C@@H](O)[C@H]2O)c2cc3c(c(O)c21)OCO3 [NARCICLASINE]	0.045 µM (active)	0.045 µM (active)	0.0535 µM (active)	–	0.045 µM (active)	–	–
